From article PMC6894882 (PLoS Neglected Tropical Diseases, 2019)
Structures can show the parent of a compound that is named as a salt. Where two headings read alike, the source gives them in different places. Marks after values point to notes of the source that are not given here.

How the values were obtained:
[1] = test system: Norovirus (human norovirus, GT1 strain); assay: microbe, parasite or virus in culture; format: cell-based; parameters: SI90: unit not given beside the values
[2] = test system: HG23
[3] = test system: MERS coronavirus; assay: microbe, parasite or virus in culture; format: cell-based; parameters: SI50: unit not given beside the values
[4] = test system: Influenza A virus H1N1; assay: microbe, parasite or virus in culture; format: cell-based; parameters: SI50: unit not given beside the values
[5] = target: CYP1A2 (Homo sapiens, UniProt P05177); assay: biochemical
CYP1A2, sequence (P05177 whole entry): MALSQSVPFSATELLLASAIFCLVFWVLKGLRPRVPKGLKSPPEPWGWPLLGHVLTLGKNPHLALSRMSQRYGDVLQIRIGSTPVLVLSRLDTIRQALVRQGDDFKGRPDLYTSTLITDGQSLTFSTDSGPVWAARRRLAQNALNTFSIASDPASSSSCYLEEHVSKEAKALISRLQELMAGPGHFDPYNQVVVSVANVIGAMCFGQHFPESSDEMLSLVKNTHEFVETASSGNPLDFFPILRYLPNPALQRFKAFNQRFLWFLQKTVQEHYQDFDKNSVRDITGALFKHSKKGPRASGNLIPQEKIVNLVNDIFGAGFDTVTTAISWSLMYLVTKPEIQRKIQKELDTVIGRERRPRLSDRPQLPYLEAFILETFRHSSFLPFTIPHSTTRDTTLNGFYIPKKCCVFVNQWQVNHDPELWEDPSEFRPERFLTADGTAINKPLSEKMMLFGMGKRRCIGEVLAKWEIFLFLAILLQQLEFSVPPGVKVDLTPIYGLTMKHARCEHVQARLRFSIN

[6] = in vivo, cited from earlier work
[7] = test system: Poliovirus 3; assay: microbe, parasite or virus in culture; format: cell-based; parameters: SI50: unit not given beside the values
[8] = in vivo; conditions: both, BALB/c, mouse, ip
[9] = test system: Rift Valley fever virus; assay: microbe, parasite or virus in culture; format: cell-based; parameters: SI50: unit not given beside the values
[10] = target: CYP3A4 (Homo sapiens, UniProt P08684); assay: biochemical
CYP3A4, sequence (P08684 whole entry): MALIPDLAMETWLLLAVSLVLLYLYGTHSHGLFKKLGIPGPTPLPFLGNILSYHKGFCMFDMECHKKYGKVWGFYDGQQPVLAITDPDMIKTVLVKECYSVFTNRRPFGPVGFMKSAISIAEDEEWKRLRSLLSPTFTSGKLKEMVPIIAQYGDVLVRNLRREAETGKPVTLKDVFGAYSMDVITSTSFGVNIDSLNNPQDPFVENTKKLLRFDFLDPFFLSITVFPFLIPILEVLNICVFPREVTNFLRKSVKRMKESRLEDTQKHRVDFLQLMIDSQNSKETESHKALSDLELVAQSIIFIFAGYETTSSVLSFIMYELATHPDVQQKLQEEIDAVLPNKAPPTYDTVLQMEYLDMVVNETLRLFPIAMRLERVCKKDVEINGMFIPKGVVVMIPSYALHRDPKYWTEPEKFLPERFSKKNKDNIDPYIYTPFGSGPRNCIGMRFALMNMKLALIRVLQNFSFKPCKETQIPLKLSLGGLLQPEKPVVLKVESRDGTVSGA

[11] = test system: Herpes Simplex Virus 1; assay: microbe, parasite or virus in culture; format: cell-based; parameters: SI50 / SI90: unit not given beside the values
[12] = test system: Murine norovirus; assay: microbe, parasite or virus in culture; format: cell-based; parameters: SI50 / SI90: unit not given beside the values
[13] = target: CYP2C19 (Homo sapiens, UniProt P33261); assay: biochemical
CYP2C19, sequence (P33261 whole entry): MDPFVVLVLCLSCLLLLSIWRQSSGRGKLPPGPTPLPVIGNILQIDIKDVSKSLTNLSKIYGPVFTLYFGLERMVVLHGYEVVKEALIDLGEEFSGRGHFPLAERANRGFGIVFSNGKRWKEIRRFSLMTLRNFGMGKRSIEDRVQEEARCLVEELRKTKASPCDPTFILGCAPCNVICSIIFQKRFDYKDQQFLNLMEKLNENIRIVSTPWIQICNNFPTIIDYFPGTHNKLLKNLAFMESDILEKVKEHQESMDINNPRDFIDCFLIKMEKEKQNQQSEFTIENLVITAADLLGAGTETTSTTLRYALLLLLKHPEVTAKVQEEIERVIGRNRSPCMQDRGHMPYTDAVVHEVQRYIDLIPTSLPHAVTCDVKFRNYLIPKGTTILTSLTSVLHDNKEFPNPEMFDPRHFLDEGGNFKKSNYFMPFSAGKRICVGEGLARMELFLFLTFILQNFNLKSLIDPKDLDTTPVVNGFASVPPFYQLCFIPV

[14] = test system: West Nile virus; assay: microbe, parasite or virus in culture; format: cell-based; parameters: SI50: unit not given beside the values
[15] = test system: Zika virus; assay: microbe, parasite or virus in culture; format: cell-based; parameters: SI50: unit not given beside the values
[16] = in vitro; conditions: African green monkey
[17] = physchem; conditions: 20 °C, pH 7.4, aqueous buffer, kinetic from dmso stock
[18] = pH 7.4
[19] = test system: Vaccinia Virus; assay: microbe, parasite or virus in culture; format: cell-based; parameters: SI50 / SI90: unit not given beside the values
[20] = in vitro; conditions: human, microsomes
[21] = test system: Respiratory synactial virus; assay: organism not typed; format: cell-based; parameters: SI50: unit not given beside the values
[22] = test system: Yellow Fever virus; assay: microbe, parasite or virus in culture; format: cell-based; parameters: SI50: unit not given beside the values
[23] = test system: T. cruzi; conditions: mouse, in vivo; cited from earlier work
[24] = in vitro; conditions: mouse, plasma, pH 7.4
[25] = in vitro; conditions: human, plasma, pH 7.4
[26] = target: CYP2D6 (Homo sapiens, UniProt P10635); assay: biochemical
CYP2D6, sequence (P10635 whole entry): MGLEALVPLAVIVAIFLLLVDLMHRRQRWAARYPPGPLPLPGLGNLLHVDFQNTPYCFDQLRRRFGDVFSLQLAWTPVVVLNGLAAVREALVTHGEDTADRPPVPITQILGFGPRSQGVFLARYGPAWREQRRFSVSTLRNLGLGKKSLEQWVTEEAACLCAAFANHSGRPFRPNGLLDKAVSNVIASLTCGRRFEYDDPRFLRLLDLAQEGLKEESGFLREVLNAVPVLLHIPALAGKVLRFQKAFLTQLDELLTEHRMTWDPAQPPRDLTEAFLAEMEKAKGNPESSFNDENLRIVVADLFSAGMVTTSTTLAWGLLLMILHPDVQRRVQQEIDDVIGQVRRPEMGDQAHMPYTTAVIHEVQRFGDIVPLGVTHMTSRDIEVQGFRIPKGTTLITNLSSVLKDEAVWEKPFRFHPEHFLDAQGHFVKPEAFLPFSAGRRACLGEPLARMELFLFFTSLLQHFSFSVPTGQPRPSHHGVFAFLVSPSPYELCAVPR

[27] = in vitro; conditions: guinea pig, microsomes
[28] = mouse, in vivo
[29] = test system: Dengue Virus 2; assay: microbe, parasite or virus in culture; format: cell-based; parameters: SI50: unit not given beside the values
[30] = in vitro; conditions: African green monkey; remark: listed apart in the source
[31] = test system: Plasmodium falciparum; conditions: read-out: in vitro EC50; cited from earlier work
[32] = test system: Human cytomegalovirus; assay: microbe, parasite or virus in culture; format: cell-based; parameters: SI50 / SI90: unit not given beside the values
[33] = test system: Venezuelian equine encephalitis virus; assay: organism not typed; format: cell-based; parameters: SI50: unit not given beside the values
[34] = in vivo; conditions: BALB/c, mouse, ip
[35] = in vitro; conditions: mouse, microsomes
[36] = mouse, in vivo; cited from earlier work
[37] = in vitro; conditions: dog
[38] = in vitro; conditions: mouse
[39] = test system: Hepatitis C virus; assay: microbe, parasite or virus in culture; format: cell-based; parameters: SI50 / SI90: unit not given beside the values
[40] = in vitro; conditions: non-human primate, microsomes
[41] = test system: Tacaribe virus; assay: microbe, parasite or virus in culture; format: cell-based; parameters: SI50: unit not given beside the values
[42] = test system: EBOV in HeLa cells; format: cell-based, Ebola virus
[43] = test system: Chikungunya virus; assay: microbe, parasite or virus in culture; format: cell-based; parameters: SI50: unit not given beside the values
[44] = test system: Hepatitis B virus; assay: microbe, parasite or virus in culture; format: cell-based; parameters: SI50 / SI90: unit not given beside the values
[45] = test system: Ebola virus (Zaire strain); assay: microbe, parasite or virus in culture; format: cell-based; parameters: SI50: unit not given beside the values
[46] = target: CYP2C9 (Homo sapiens, UniProt P11712); assay: biochemical
CYP2C9, sequence (P11712 whole entry): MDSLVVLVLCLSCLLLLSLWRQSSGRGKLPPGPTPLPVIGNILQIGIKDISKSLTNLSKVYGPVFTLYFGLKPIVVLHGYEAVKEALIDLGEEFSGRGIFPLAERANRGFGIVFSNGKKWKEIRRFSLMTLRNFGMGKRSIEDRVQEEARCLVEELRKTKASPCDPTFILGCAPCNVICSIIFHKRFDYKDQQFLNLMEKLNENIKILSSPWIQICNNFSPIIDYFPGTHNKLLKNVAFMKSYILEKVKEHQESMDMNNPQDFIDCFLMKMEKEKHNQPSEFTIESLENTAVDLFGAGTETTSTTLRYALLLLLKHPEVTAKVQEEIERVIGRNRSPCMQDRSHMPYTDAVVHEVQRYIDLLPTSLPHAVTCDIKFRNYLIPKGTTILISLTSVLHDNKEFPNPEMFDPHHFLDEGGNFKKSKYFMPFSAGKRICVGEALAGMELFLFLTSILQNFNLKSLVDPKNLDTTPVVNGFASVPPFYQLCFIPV

[47] = test system: cytokines and chemokines; parameters: species or system mice; conditions: mouse, in vivo
[48] = test system: HeLa cells; conditions: cited from earlier work
[49] = test system: Zika virus; assay: microbe, parasite or virus in culture; format: cell-based; parameters: SI50: unit not given beside the values; remark: listed apart in the source
[50] = in vitro; conditions: human, Caco-2, pH 7.4
[51] = test system: EBOV; conditions: mouse, in vivo; cited from earlier work
[52] = test system: EBOV; conditions: in vivo; cited from earlier work
[53] = test system: EBOV; conditions: in vivo; cited from earlier work; remark: listed apart in the source
[54] = Hepatitis B virus, HepG2 2.2.15

## C[C@@]1(O)[C@H](O)[C@@H](CO)O[C@H]1n1ccc(N)nc1=O [2’C-methyl cytidine]
[1]; read-out: EC50
  EC50: 6.5 µM
[2]
  CC50: > 300 µM

## COc1ccc2nc3cc(Cl)ccc3c(Nc3cc(CN4CCCC4)c(O)c(CN4CCCC4)c3)c2n1 [Pyronaridine, 4-[(7-Chloro-2-methoxybenzo[b][1, 5]naphthyridin-10-yl)amino]-2,6-bis(1-pyrrolidinylmethyl)phenol phosphate (1:4)]
[3]
  SI50: 1
[3]; Middle East respiratory syndrome-related coronavirus, Vero 76
  EC50: 3.2 µM
[4]
  SI50: 1
[4]; Influenza A virus, H1N1, MDCK
  EC50: 3.2 µM
[5]
  IC50: > 50 µM
[6]; human, po, 400 mg
  t1/2: 241 h
  volume of distribution: 41.2 L/kg
[6]; human
  half-life elimination in whole blood: approximately 17 d
  t1/2 in humans: 195 to 251 h
[6]
  total radioactive half-life: 804 h
[7]
  SI50: 1
[7]; Enterovirus C, Vero 76
  EC50: 3.2 µM
[8]
  MTD: 100 mg/kg
[9]
  SI50: 1
[9]; Rift Valley fever virus, Vero 76
  EC50: 3.2 µM
[10]
  IC50: 42.9 µM
[11]
  SI50: <1
  SI90: <1
[11]; Human alphaherpesvirus 1, HFF
  EC50: > 6 µM
  EC90: > 6 µM
[12]
  SI50: 1
  SI90: 1
[12]; Norwalk virus, RAW267.4
  EC50: > 40 µM
  EC90: > 40 µM
[13]
  IC50: > 50 µM
[14]
  SI50: 0
[14]; West Nile virus, Vero 76
  EC50: > 24 µM
[15]
  SI50: 1
[15]; Zika virus, Vero 76
  EC50: 3.2 µM
[16]; CC50
  CC50: 3.2 µM
[16]; approximate CC50
  CC50: ~3 µM
[17]
  solubility: 168 µM
[18]
  abundance relative to parent drug (Mouse): 100%*
[19]
  SI50: <3
  SI90: <3
[19]; Orthopoxvirus vaccinia, HFF
  EC50: > 1.2 µM
  EC90: > 1.2 µM
[20]
  microsomal CLint: 4.1 µL/min/mg
[21]
  SI50: 0
[21]; MA104
  EC50: > 7.5 µM
[22]
  SI50: 1
[22]; Yellow fever virus, Vero 76
  EC50: 3.2 µM
[23]
  efficacy rate: 85%
[24]
  fraction unbound: 0.035
[25]
  fraction unbound: 0.049
[26]
  IC50: 2.23 µM
[27]
  half-life: 0.74 h
  microsomal CLint: 15.6 µL/min/mg
[28]
  clinical observations in PK study: ruffled fur and eye squinting
[28]; ip
  time of peak plasma levels: 0.25 and 1
[29]
  SI50: 1
[29]; Dengue virus, Vero 76
  EC50: 3.2 µM
[1]
  SI90: 10
[1]; Norovirus, GT1, HG23
  EC50: 3.5 µM
  EC90: 9.7 µM
[30]
  CC50: 7.5 µM
[31]
  EC50: 0.0135 µM
[32]
  SI50: <3
  SI90: <3
[32]; Human betaherpesvirus 5, HFF
  EC50: > 1.2 µM
  EC90: > 1.2 µM
[33]
  SI50: 1.8
[33]; Vero 76
  EC50: 1.8 µM
[34]; female, 5 mg/kg
  AUC(0-t): 257 ng·h/mL
  Cmax: 54 ng/mL
  Tmax: 4.98 min
[34]; female, 25 mg/kg
  AUC(0-t): 956 ng·h/mL
  Cmax: 160 ng/mL
[34]; male, 5 mg/kg
  AUC(0-t): 192 ng·h/mL
  Cmax: 44.4 ng/mL
[34]; male, 25 mg/kg
  AUC(0-t): 713 ng·h/mL
  Cmax: 115 ng/mL
[34]; male, 75 mg/kg
  AUC(0-inf): 33900 ng·h/mL
  AUC(0-t): 33000 ng·h/mL
  Cmax: 982 ng/mL
  half-life: 146 h
[35]
  half-life: 2.88 h
  microsomal CLint: 4 µL/min/mg
[36]
  LD50: 1342 mg/kg
[37]
  CC50: 3.2 µM
[38]
  CC50: > 40 µM
[39]
  SI50: 1
  SI90: <1
[39]; Hepatitis C virus, Huh-7
  EC50: 0.78 µM
  EC90: 1.71 µM
[40]
  half-life: 2.33 h
  microsomal CLint: 4.9 µL/min/mg
[41]
  SI50: 0
[41]; Mammarenavirus tacaribeense, Vero
  EC50: > 3.2 µM
[42]
  SI: ~ 3
[43]
  SI50: 1
[43]; Chikungunya virus, Vero 76
  EC50: 3.2 µM
[44]
  SI50: <1
  SI90: <1
[44]; [54]
  EC50: 4.52 µM
  EC90: > 100 µM
[45]
  SI50: 0
  anti-EBOV activity (Zaire strain): lack of antiviral activity
[45]; Zaire ebolavirus, Vero 76
  EC50: > 1.3 µM
[46]
  IC50: > 50 µM
[47]
  IFN-α/β concentrations: below the level of detection
  cytokine/chemokine levels over vehicle or naïve controls: did not elicit a statistically significant increase
[48]
  CC50: 3.1 µM
[49]
  SI50: 1
[49]; Zika virus, Huh-7
  EC50: 3.2 µM
[50]
  Papp A→B: 6.46 ×10⁻⁶ cm/s
  Papp B→A: 4.8 ×10⁻⁶ cm/s
  efflux ratio: 0.74

## CCN(CC)CCOc1ccc2c(c1)C(=O)c1cc(OCCN(CC)CC)ccc1-2 [Tilorone, tilorone dihydrochloride]
[47]
  IFN-α/β levels: below the LLOD
  cytokine/chemokine protein concentrations over vehicle-treated and naïve mice: statistically significant increase in observed protein concentrations

## CCN(CC)CCCC(C)Nc1ccnc2cc(Cl)ccc12 (stereo not shown) [chloroquine]
[51]
  survival rate: 90%
[52]
  activity in guinea pig studies: inactive

B1: mAb114 (antibody, chains of the INN, looked up, V domains shown)
VH: EVQLVESGGGLIQPGGSLRLSCAASGFALRMYDMHWVRQTIDKRLEWVSAVGPSGDTTYADSVKGRFAVSRENAKNSLSLQMNSLTAGDTAIYYCVRSDRGVAGLFDSWGQGILVTVSS
VL: DIQMTQSPSSLSASVGDRITITCRASQAFDNYVAWYQQRPGKVPKLLISAASALHAGVPSRFSGSGSGTHFTLTISSLQPEDVATYYCQNYNSAPLTFGGGTKVEIK
[53]
  survival rates in clinical trial: higher survival rates than ZMapp and remdesivir
